Several values for one entry are separate records, joined by “and”; a condition that tells them apart may be missing. Equal values may be shown once.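 Each compound was tested at five concentrations against cells in 96-well plates for 48 hours. GI50 marks 50% less growth. TGI: total growth inhibition.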 A value given as a limit tells only on which side of the number the result lay.

Among the test systems are CAKI-1 renal; EKVX NSCLC; HL-60(TB) leukemia; OVCAR-3 ovarian; OVCAR-5 ovarian; SK-MEL-28 melanoma; SN12C renal; SNB-75 CNS; TK-10 renal; UACC-257 melanoma.
What all share (assay): NCI-60 cell line screen, 48 h

In the case of `COc1cc(C2c3cc4c(cc3[C@@H](OCCN)[C@H]3COC(=O)C23)OCO4)cc(OC)c1O` (stereo partly drawn), the TGI in the assay on CAKI-1 renal is 1.52 µM; in the assay on EKVX NSCLC, 2.22 µM; with HL-60(TB) leukemia, 0.0633 µM; with OVCAR-3 ovarian it was 3.06 µM; in the assay with OVCAR-5 ovarian it was 3.6 µM; in the assay with SK-MEL-28 melanoma, 2.37 µM. The TGI is 0.562 µM in the assay on SN12C renal, 2.43 µM in the assay with SNB-75 CNS, greater than 19.8 µM in the assay on TK-10 renal and 18.2 µM in the assay on UACC-257 melanoma.

As to `CCOC(=O)C1=C(O)CSC1=Nc1ccc(N=C2SCC(O)=C2C(=O)OCC)cc1`, the TGI in the assay on CAKI-1 renal is 30.8 µM; in the assay on EKVX NSCLC it was 96.7 µM; with HL-60(TB) leukemia, greater than 100 µM; in the assay with OVCAR-3 ovarian, greater than 100 µM; with OVCAR-5 ovarian it was 54 µM; in the assay with SK-MEL-28 melanoma it was 40.8 µM. Moreover, the TGI with SN12C renal was 71.8 µM; with SNB-75 CNS, 61.4 µM; in the assay with TK-10 renal, 94.7 µM; with UACC-257 melanoma it was 75.5 µM.

As for `O=[N+]([O-])c1ccc([I+]c2ccccc2)cc1`, the GI50 with CAKI-1 renal was 0.289 µM; in the assay on EKVX NSCLC, 1.5 µM; in the assay with HL-60(TB) leukemia it was 3.15 µM; with OVCAR-3 ovarian, 1.8 µM; with OVCAR-5 ovarian, 1.78 µM; in the assay on SK-MEL-28 melanoma, 1.92 µM. For the same compound, the GI50 in the assay on SN12C renal was 1.4 µM; in the assay with SNB-75 CNS, 1.66 µM; with TK-10 renal it was 3.61 µM; in the assay on UACC-257 melanoma, 1.6 µM. Further, the TGI is 15 µM and 1.58 µM in the assay on CAKI-1 renal; 32 µM and 3.32 µM with EKVX NSCLC; 27.4 µM and 9.73 µM in the assay on HL-60(TB) leukemia; 12.2 µM and 3.39 µM in the assay with OVCAR-3 ovarian; 17 µM and 3.34 µM in the assay on OVCAR-5 ovarian; 10.1 µM and 4.57 µM in the assay with SK-MEL-28 melanoma. Also, the TGI is 3.26 µM and 2.89 µM in the assay on SN12C renal; 3.28 µM with SNB-75 CNS; 26.9 µM and 15.5 µM in the assay with TK-10 renal; 13.9 µM and 4.42 µM with UACC-257 melanoma.

In the case of `COc1ccc(C2=NN(c3ccc(S(N)(=O)=O)cc3)C(c3ccc(Cl)cc3)C2)c(O)c1` (stereo not drawn), the GI50 in the assay with CAKI-1 renal was 2.67 µM; in the assay on EKVX NSCLC, 2.71 µM; in the assay on HL-60(TB) leukemia it was 1.86 µM; in the assay on OVCAR-3 ovarian, 2.6 µM; in the assay on OVCAR-5 ovarian, 9.44 µM; with SK-MEL-28 melanoma it was 5.06 µM. The GI50 in the assay with SN12C renal is 5.09 µM; in the assay with SNB-75 CNS, 5.87 µM; with TK-10 renal it was 2.49 µM; with UACC-257 melanoma, 6.84 µM. The TGI came out at 8.64 µM in the assay with CAKI-1 renal; 10.5 µM in the assay on EKVX NSCLC; 4.99 µM with HL-60(TB) leukemia; 7.45 µM in the assay with OVCAR-3 ovarian; 29.3 µM with OVCAR-5 ovarian; 18.1 µM in the assay with SK-MEL-28 melanoma. The TGI came out at 18.3 µM in the assay on SN12C renal, 45.1 µM in the assay with SNB-75 CNS, 9.02 µM in the assay with TK-10 renal and 42 µM in the assay with UACC-257 melanoma.

For `Cn1c(=O)c2c(nc3n2C(CCl)CO3)n(C)c1=O` (stereo not drawn), the TGI with CAKI-1 renal, in the assay on EKVX NSCLC, in the assay with HL-60(TB) leukemia, in the assay on OVCAR-3 ovarian, in the assay with OVCAR-5 ovarian and in the assay on SK-MEL-28 melanoma was greater than 100 µM in each case. Also, the TGI in the assay on SN12C renal, in the assay with SNB-75 CNS, with TK-10 renal and in the assay with UACC-257 melanoma was greater than 100 µM each time.

On to `C/C=C(\C)C(=O)O[C@@H]1C=CC(=O)O[C@H]1COC(=O)[C@H](C)O`, for which the GI50 in the assay on CAKI-1 renal is 27 µM; in the assay with EKVX NSCLC, 19 µM; in the assay with HL-60(TB) leukemia, 4.41 µM; with OVCAR-3 ovarian, 14 µM; in the assay on OVCAR-5 ovarian it was 15.3 µM; with SK-MEL-28 melanoma, 12.4 µM. For the same compound, the GI50 in the assay with SN12C renal was 14.5 µM; in the assay with SNB-75 CNS, 10.8 µM; in the assay with TK-10 renal it was 13 µM; with UACC-257 melanoma, 13.4 µM. In addition, the TGI is 42.9 µM with CAKI-1 renal; 42.1 µM in the assay on EKVX NSCLC; 21.3 µM in the assay on HL-60(TB) leukemia; 27.6 µM with OVCAR-3 ovarian; 31.5 µM in the assay with OVCAR-5 ovarian; 27.9 µM in the assay with SK-MEL-28 melanoma. Further, the TGI in the assay on SN12C renal was 30.2 µM; in the assay on SNB-75 CNS it was 32 µM; in the assay with TK-10 renal, 25.8 µM; in the assay with UACC-257 melanoma, 46.8 µM.

Turning to `COc1cccc(C2C3=C(COC3=O)N(CCO)c3cc4c(cc32)CCC4)c1` (stereo not drawn), the GI50 was 0.132 µM in the assay on CAKI-1 renal; 0.133 µM with EKVX NSCLC; 0.111 µM with HL-60(TB) leukemia; 0.018 µM in the assay with OVCAR-3 ovarian; 0.344 µM with OVCAR-5 ovarian; 13.4 µM with SK-MEL-28 melanoma. For the same compound, the GI50 in the assay on SN12C renal is 0.269 µM; in the assay with SNB-75 CNS, 0.0236 µM; with TK-10 renal, 2.13 µM; in the assay on UACC-257 melanoma, 32.6 µM. Moreover, the TGI with CAKI-1 renal is greater than 50 µM; with EKVX NSCLC, greater than 50 µM; in the assay on HL-60(TB) leukemia it was 0.314 µM; with OVCAR-3 ovarian, 0.0591 µM; in the assay with OVCAR-5 ovarian, greater than 50 µM; in the assay on SK-MEL-28 melanoma, greater than 50 µM. The TGI was greater than 32.6 µM in the assay on SN12C renal, 0.397 µM with SNB-75 CNS, greater than 50 µM in the assay with TK-10 renal and greater than 50 µM in the assay with UACC-257 melanoma.

Regarding `O=C(O)Cc1ccccc1`, the GI50 in the assay with CAKI-1 renal, in the assay on EKVX NSCLC, with HL-60(TB) leukemia, with OVCAR-5 ovarian, with SK-MEL-28 melanoma and in the assay on SN12C renal was greater than 1000 µM throughout. Also, the GI50 with SNB-75 CNS, in the assay with TK-10 renal and in the assay on UACC-257 melanoma was greater than 1000 µM in each case. For the same compound, the TGI in the assay on CAKI-1 renal is greater than 1000 µM; in the assay on EKVX NSCLC, greater than 2000 µM; in the assay on HL-60(TB) leukemia, greater than 1000 µM; in the assay with OVCAR-3 ovarian it was greater than 2000 µM; with OVCAR-5 ovarian it was greater than 2000 µM; in the assay with SK-MEL-28 melanoma it was greater than 2000 µM. Further, the TGI in the assay with SN12C renal, in the assay on SNB-75 CNS, with TK-10 renal and in the assay on UACC-257 melanoma was greater than 2000 µM throughout.

Consider `O=C(/C=C/c1cccnc1)/C=C/c1cccnc1`, for which the GI50 was 4.28 µM with CAKI-1 renal; 4.74 µM with EKVX NSCLC; 0.707 µM with HL-60(TB) leukemia; 1.07 µM in the assay with OVCAR-3 ovarian; 2.17 µM in the assay on OVCAR-5 ovarian; 1.95 µM with SK-MEL-28 melanoma. For the same compound, the GI50 with SN12C renal was 2.99 µM; in the assay on SNB-75 CNS, 1.8 µM; in the assay with TK-10 renal, 3.11 µM; in the assay on UACC-257 melanoma, 7.63 µM. Also, the TGI was found to be 26.6 µM in the assay with CAKI-1 renal; 21.6 µM in the assay with EKVX NSCLC; 2.33 µM with OVCAR-3 ovarian; 5.03 µM in the assay on OVCAR-5 ovarian; 4.02 µM in the assay with SK-MEL-28 melanoma; 12.7 µM with SN12C renal. The TGI in the assay on SNB-75 CNS turned out to be 7.33 µM; with TK-10 renal it was 10.4 µM; in the assay with UACC-257 melanoma, 20.3 µM.

On to `COc1ccc2c(c1)C(=O)/C(=C/c1ccc(OCC(=O)c3ccc(Cl)cc3)cc1)O2`, for which the GI50 was 16.4 µM in the assay with CAKI-1 renal; 25.6 µM in the assay with EKVX NSCLC; 2.89 µM with HL-60(TB) leukemia; 12.3 µM in the assay with OVCAR-3 ovarian; 11.5 µM in the assay with OVCAR-5 ovarian; 15.5 µM in the assay on SK-MEL-28 melanoma. For the same compound, the GI50 in the assay with SN12C renal is 17.3 µM; with SNB-75 CNS, 12.2 µM; in the assay with TK-10 renal, 26.5 µM; in the assay on UACC-257 melanoma it was greater than 100 µM. The TGI in the assay on CAKI-1 renal is 90.1 µM; with EKVX NSCLC it was greater than 100 µM; in the assay on HL-60(TB) leukemia, 16.9 µM; in the assay with OVCAR-3 ovarian it was 24.8 µM; with OVCAR-5 ovarian it was 23.9 µM; with SK-MEL-28 melanoma it was 30.1 µM. For the same compound, the TGI in the assay on SN12C renal was 63.9 µM; in the assay on SNB-75 CNS, 79.9 µM; with TK-10 renal it was 43.4 µM; with UACC-257 melanoma it was greater than 100 µM.

Consider `C/C(=N\NC(=S)Nc1ccccc1)c1ccccn1`, for which the GI50 with CAKI-1 renal was 0.185 µM; with EKVX NSCLC, 0.0691 µM; with HL-60(TB) leukemia, less than 0.0114 µM; in the assay with OVCAR-3 ovarian it was less than 0.01 µM; in the assay on OVCAR-5 ovarian, 0.118 µM; in the assay with SK-MEL-28 melanoma, 1.68 µM. Also, the GI50 with SN12C renal was 0.355 µM; with SNB-75 CNS, 1.86 µM; with TK-10 renal, 1.02 µM; in the assay with UACC-257 melanoma it was 0.032 µM. For the same compound, the TGI with CAKI-1 renal came out at 8.74 µM; in the assay with EKVX NSCLC it was 7.38 µM; in the assay with HL-60(TB) leukemia it was 0.0781 µM; in the assay with OVCAR-3 ovarian, 0.0538 µM; with OVCAR-5 ovarian it was 10.9 µM; with SK-MEL-28 melanoma, 4.94 µM. Moreover, the TGI in the assay with SN12C renal amounted to 9.64 µM; with SNB-75 CNS, 11 µM; in the assay with TK-10 renal it was 3.77 µM; in the assay with UACC-257 melanoma it was 0.384 µM.

As to `CC(=O)NNc1nc(C)c(C(/C=C/c2ccc3c(c2)OCO3)=N/NC(=O)c2ccncc2)s1`, the TGI in the assay on CAKI-1 renal, in the assay with EKVX NSCLC, with HL-60(TB) leukemia, in the assay with OVCAR-3 ovarian, in the assay on OVCAR-5 ovarian and in the assay on SK-MEL-28 melanoma was greater than 100 µM in each case. The TGI with SN12C renal, in the assay with SNB-75 CNS, in the assay on TK-10 renal and with UACC-257 melanoma was greater than 100 µM in each case.

In the case of `COc1ccc(C(NCCNC(c2ccc(OC)c(OC)c2)c2cc3c(cc2O)OCO3)c2cc3c(cc2O)OCO3)cc1OC` (stereo not drawn), the TGI in the assay with CAKI-1 renal worked out at 7.77 µM; with EKVX NSCLC it was 18.7 µM; in the assay on HL-60(TB) leukemia, 4.69 µM; with OVCAR-3 ovarian, 6.82 µM; in the assay with OVCAR-5 ovarian it was 11.6 µM; with SK-MEL-28 melanoma, 3.55 µM. In addition, the TGI in the assay on SN12C renal is 4.55 µM; in the assay on SNB-75 CNS it was 11.5 µM; with TK-10 renal, 12.7 µM; in the assay on UACC-257 melanoma, 9.97 µM.

`COC(=O)CC(CC(=O)C(=O)OC)C(=O)OC` (stereo not drawn): the TGI with CAKI-1 renal, in the assay with EKVX NSCLC, in the assay on HL-60(TB) leukemia, in the assay with OVCAR-3 ovarian, with OVCAR-5 ovarian and in the assay with SK-MEL-28 melanoma was greater than 100 µM each time. The TGI with SN12C renal, in the assay with SNB-75 CNS, with TK-10 renal and in the assay on UACC-257 melanoma was greater than 100 µM in each case.
